Reference: US20230365576A1, “BRM Targeting Compounds And Associated Methods Of Use” (Prelude Therapeutics Incorporated, priority 2022, published 2023)

Legend:
SMARCA2 = target: T1, SMARCA2 (Homo sapiens, UniProt P51531); assay: SMARCA2 HiBiT degradation assay in HeLa cells; assay type: cell-based; settings: 18 hours; for DC50: read-out: SMARCA2 IC50; for Dmax: HeLa
T1 construct: SMARCA2-HiBiT knock-in Hela monoclonal cell (CS302366); host or cells: HeLa (CRISPR HiBiT knock-in monoclonal line, heterozygous)
Experimental: (§1) Example A. SMARCA2 HiBiT and SMARCA4 HiBiT Degradation Assay
(§2) Preparation of SMARCA2/4-HiBiT Knock-In Cells
(§3) HiBiT peptide knock-in of SMARCA2 in LgBiT expressing HEK293T cells was performed by CRISPR-mediated tagging system as described Promega. The homozygous HiBiT knock-in on c-terminus SMARCA2 was confirmed by sanger sequence. SMARCA2-HiBiT knock-in Hela monoclonal cell (CS302366) and SMARCA4-HiBiT knock-in Hela monoclonal cell (CS3023226) were purchased from Promega. The heterozygous HiBiT-knock-in was confirmed by sanger sequence in both SMARCA2-HiBiT and SMARCA4-HiBiT monoclonal cells.
(§4) SMARCA2 HiBiT and SMARCA4 HiBiT Degradation Assay in HeLa Cells
(§5) Compounds were dissolved in DMSO to make 10 mM stock and 3-fold series dilutions were further conducted keeping the highest concentration 10 μM. NCIH1693 and NCIH520 cells were maintained in PRMI 1640 medium (Corning Cellgro, Catalog #:10-040-CV) supplemented with 10% v/v FBS (GE Healthcare, Catalog #: SH30910.03) by splitting 1:3 twice a week.
(§6) Dispense 10 ul aliquot of prepared Hela-SMARCA2-HiBiT or Hela-SMARCA4-HiBiT cells (1:1 ratio of cells:Trypan Blue (#1450013, Bio-Rad)) onto cell counting slide (#145-0011, Bio-Rad) and obtain cell density and cell viability using cell counter (TC20, Bio-Rad). Remove appropriate volume of resuspended cells from culture flask to accommodate 2500 cells/well @ 20 μL/well. Transfer Hela-HiBiT cells to 50 mL conical (#430290, Corning). Spin down at 1000 rpm for 5 min using tabletop centrifuge (SPINCHRON 15, Beckman). Discard supernatant and resuspend cell pellet in modified EMEM (#30-2003, ATCC) cell culture media containing 10% FBS (F2422-500ML, Sigma), and 1X Penicillin/Streptomycin (200 g/L) (30-002-CI, Corning) to a cell density of 125,000 cells/mL. Dispense 20 μL of resuspended Hela-HiBit cells per well in 384-well TC treated plate (#12-565-343, Thermo Scientific) using standard cassette (#50950372, Thermo Scientific) on Multidrop Combi (#5840310, Thermo Scientific) inside laminar flow cabinet. Dispense test compounds onto plates using digital liquid dispenser (D300E, Tecan). Incubate plates in humidified tissue culture incubator @37° C. for 18 hours. Add 20 μL of prepared Nano-Glo® HiBiT Lytic detection buffer (N3050, Promega) to each well of 384-well plate using small tube cassette (#24073295, Thermo Scientific) on Multidrop Combi, incubate @ RT for 30-60 min. Read plates on microplate reader (Envision 2105, PerkinElmer) using 384 well Ultra-Sensitive luminescence mode. Raw data files and compound information reports are swept into centralized data lake and deconvoluted using automated scripts designed by TetraScience, Inc. Data analysis, curve-fitting and reporting done in Dotmatics Informatics Suite using Screening Ultra module.

SMARCA4 = target: T2, SMARCA4 (Homo sapiens, UniProt P51532); assay: SMARCA4 HiBiT degradation assay in HeLa cells; assay type: cell-based; settings: 18 hours; for Dmax: HeLa
T2 construct: SMARCA4-HiBiT knock-in Hela monoclonal cell (CS3023226) were purchased from Promega; host or cells: HeLa (CRISPR HiBiT knock-in monoclonal line, heterozygous)
Experimental: as §1, §2, §3, §4, §5, §6

T2 sequence (P51532 whole entry): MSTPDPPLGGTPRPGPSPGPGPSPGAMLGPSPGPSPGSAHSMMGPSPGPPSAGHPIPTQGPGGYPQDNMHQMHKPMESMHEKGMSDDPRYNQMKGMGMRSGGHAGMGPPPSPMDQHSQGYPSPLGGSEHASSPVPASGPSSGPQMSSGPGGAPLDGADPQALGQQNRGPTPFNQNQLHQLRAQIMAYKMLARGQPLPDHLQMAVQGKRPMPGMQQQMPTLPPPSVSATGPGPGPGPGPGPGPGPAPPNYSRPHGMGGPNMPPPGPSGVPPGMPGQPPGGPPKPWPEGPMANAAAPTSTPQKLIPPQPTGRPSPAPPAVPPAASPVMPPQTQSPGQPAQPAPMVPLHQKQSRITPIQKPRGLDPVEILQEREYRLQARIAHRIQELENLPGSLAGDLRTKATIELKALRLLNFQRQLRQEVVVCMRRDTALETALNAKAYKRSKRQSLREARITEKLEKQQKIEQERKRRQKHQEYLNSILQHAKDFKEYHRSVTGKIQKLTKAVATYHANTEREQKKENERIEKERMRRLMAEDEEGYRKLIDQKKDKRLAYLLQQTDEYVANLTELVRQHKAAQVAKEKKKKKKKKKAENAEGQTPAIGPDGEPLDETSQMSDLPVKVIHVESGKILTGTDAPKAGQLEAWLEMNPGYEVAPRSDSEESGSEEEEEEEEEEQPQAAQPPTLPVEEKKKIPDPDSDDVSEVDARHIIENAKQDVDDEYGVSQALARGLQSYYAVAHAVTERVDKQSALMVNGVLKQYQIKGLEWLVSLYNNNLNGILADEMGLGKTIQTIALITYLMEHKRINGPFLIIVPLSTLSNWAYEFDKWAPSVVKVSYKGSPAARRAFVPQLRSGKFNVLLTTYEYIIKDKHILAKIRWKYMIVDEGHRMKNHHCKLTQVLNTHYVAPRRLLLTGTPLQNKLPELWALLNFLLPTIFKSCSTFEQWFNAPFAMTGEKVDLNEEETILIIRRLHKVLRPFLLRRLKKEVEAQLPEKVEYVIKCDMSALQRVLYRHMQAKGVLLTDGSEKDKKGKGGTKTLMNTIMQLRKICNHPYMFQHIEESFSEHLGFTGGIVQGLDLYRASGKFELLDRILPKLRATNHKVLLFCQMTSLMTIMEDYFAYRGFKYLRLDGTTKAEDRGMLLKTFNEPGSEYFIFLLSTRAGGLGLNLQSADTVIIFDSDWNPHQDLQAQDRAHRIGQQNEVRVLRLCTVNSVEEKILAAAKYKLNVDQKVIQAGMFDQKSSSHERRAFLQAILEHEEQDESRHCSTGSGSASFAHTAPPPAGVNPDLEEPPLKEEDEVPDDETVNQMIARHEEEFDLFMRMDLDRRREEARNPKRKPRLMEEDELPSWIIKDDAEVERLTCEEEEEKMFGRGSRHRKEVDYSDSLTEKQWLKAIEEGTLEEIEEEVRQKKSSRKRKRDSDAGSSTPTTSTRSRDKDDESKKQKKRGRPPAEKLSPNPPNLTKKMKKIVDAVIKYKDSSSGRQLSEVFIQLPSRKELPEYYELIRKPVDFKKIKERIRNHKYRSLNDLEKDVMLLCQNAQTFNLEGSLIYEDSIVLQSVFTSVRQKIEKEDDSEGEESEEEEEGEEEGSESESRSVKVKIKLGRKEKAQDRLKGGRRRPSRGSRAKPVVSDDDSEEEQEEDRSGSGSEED
T1 sequence (P51531 whole entry): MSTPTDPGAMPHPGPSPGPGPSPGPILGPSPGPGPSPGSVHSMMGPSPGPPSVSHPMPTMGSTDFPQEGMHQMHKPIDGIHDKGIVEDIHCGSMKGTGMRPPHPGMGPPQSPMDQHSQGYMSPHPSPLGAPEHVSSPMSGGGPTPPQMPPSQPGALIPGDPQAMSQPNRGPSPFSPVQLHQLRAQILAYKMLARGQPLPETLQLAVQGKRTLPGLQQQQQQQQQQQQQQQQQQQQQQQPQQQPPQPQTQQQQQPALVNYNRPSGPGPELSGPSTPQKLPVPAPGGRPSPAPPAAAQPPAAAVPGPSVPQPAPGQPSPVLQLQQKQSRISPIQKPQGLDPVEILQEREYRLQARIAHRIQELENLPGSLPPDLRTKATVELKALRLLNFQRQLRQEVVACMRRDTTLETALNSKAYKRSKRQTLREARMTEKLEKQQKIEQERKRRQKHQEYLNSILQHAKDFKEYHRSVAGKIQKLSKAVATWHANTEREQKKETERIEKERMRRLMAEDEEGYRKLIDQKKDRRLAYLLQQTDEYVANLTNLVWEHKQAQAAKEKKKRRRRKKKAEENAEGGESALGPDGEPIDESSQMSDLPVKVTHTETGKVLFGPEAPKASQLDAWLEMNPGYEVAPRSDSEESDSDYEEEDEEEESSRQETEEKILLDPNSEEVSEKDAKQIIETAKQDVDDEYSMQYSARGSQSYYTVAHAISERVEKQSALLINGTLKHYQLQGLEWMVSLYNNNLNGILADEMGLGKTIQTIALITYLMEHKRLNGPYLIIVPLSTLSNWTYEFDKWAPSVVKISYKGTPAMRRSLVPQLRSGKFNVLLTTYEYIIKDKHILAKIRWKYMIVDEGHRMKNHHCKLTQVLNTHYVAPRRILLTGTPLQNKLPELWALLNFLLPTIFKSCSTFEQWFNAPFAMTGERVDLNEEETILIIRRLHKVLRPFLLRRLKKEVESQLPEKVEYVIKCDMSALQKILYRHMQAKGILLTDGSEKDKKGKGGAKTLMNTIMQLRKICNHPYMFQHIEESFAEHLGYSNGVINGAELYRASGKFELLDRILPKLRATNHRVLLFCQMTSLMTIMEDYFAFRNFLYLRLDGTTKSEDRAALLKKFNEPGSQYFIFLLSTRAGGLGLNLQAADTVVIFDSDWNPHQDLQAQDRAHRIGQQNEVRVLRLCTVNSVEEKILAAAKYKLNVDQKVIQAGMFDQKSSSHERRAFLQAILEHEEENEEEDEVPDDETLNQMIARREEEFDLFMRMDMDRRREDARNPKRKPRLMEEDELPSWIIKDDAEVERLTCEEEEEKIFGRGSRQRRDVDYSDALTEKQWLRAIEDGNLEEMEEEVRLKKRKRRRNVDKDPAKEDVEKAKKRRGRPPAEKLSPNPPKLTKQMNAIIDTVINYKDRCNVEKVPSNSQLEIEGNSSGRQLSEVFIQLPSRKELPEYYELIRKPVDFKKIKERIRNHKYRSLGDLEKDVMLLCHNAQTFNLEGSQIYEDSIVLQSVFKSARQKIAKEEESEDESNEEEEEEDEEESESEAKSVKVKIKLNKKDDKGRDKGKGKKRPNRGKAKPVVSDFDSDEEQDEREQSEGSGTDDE

SMARCA2 DMax % (SMARCA2)	DC50 (SMARCA2)	DC50 (SMARCA4)	SMARCA4 DMax % (SMARCA4)	Dmax (SMARCA2)	Dmax (SMARCA4)	SMILES
A (A=Dmax>75%)	< 0.1 µM	< 0.1 µM	B (B=50%<Dmax≤75%)			CCC12CNc3nnc(-c4cccc(F)c4O)cc3N1CCN(C(=O)N1CCN(CC3CCN(c4ccc5c(c4)C(=O)N(C4CCC(=O)NC4=O)C5)CC3)CC1(C)C)C2 (single isomer, unassigned) [Example 80, 3-(6-(4-((4-(6a-ethyl-2-(3-fluoro-2-hydroxyphenyl)-6,6a,7,8,9,10-hexahydro-5H-pyrazino-[1′,2′:4,5]pyrazino[2,3-c]pyridazine-8-carbonyl)-3,3-dimethylpiperazin-1-yl)methyl)-piperidin-1-yl)-1-oxoisoindolin-2-yl)piperidine-2,6-dione]
	< 0.1 µM	0.1 to 1 µM		> 75%	< 50%	CCC12CNc3nnc(-c4cccc(F)c4O)cc3N1CCN(C(=O)N1[C@@H](C)CN(CC3CCN(c4ccc5c(c4)C(=O)N(C4CCC(=O)NC4=O)C5)CC3)C[C@@H]1C)C2 (single isomer, unassigned) [Example 81]
	< 0.1 µM	< 0.1 µM	A (A=Dmax>75%)	> 75%		CCC12CNc3nnc(-c4cccc(F)c4O)cc3N1CCN(C(=O)N1[C@H](C)CN(CC3CCN(c4ccc5c(c4)C(=O)N(C4CCC(=O)NC4=O)C5)CC3)C[C@H]1C)C2 (single isomer, unassigned) [Example 82]
A (A=Dmax>75%)	< 0.1 µM	< 0.1 µM	B (B=50%<Dmax≤75%)			CCC12CNc3nnc(-c4cccc(F)c4O)cc3N1CCN(C(=O)N1[C@H](C)CN(CC3CCN(c4ccc5c(c4)C(=O)N(C4CCC(=O)NC4=O)C5)CC3)C[C@H]1C)C2 (single isomer, unassigned) [Example 83]
	< 0.1 µM	< 0.1 µM		> 75%	50 to 75%	CCC12CNc3nnc(-c4cccc(F)c4O)cc3N1CCN(C(=O)N1C[C@H](C)N(CC3CCN(c4ccc5c(c4)C(=O)N(C4CCC(=O)NC4=O)C5)CC3)C[C@H]1C)C2 (single isomer, unassigned) [Example 84]
	< 0.1 µM	< 0.1 µM				CCC12CNc3nnc(-c4cc(F)cc(F)c4O)cc3N1CCN(C(=O)N1[C@H](C)CN(CC3CCN(c4ccc5c(c4)C(=O)N(C4CCC(=O)NC4=O)C5)CC3)C[C@@H]1C)C2 (single isomer, unassigned) [Example 85]
A (A=Dmax>75%)	< 0.1 µM	< 0.1 µM	A (A=Dmax>75%)			CCC12CNc3nnc(-c4cccc(F)c4O)cc3N1CCN(C(=O)N1[C@H](C)CN(CC3CCN(c4ccc5c(c4)C(=O)N(C4CCC(=O)NC4=O)C5)CC3)C[C@@H]1C)C2 (single isomer, unassigned) [Example 86]
	< 0.1 µM	< 0.1 µM				CCC12CNc3nnc(-c4cc(F)cc(F)c4O)cc3N1CCN(C(=O)N1[C@H](C)CN(CC3CCN(c4ccc5c(c4)C(=O)N(C4CCC(=O)NC4=O)C5)CC3)C[C@@H]1C)C2 (single isomer, unassigned) [Example 87]
A (A=Dmax>75%)	< 0.1 µM	< 0.1 µM	A (A=Dmax>75%)			CCC12CNc3nnc(-c4cccc(F)c4O)cc3N1CCN(C(=O)N1[C@H](C)CN(CC3CCN(c4ccc5c(c4)C(=O)N(C4CCC(=O)NC4=O)C5)CC3)C[C@@H]1C)C2 (single isomer, unassigned) [Example 88]
	< 0.1 µM	0.1 to 1 µM		> 75%	< 50%	CC1(C)CN(CC2CCN(c3ccc4c(c3)C(=O)N([C@H]3CCC(=O)NC3=O)C4)CC2)CCN1C(=O)N1CCN2c3cc(-c4cccc(F)c4O)nnc3NCC2(CF)C1 (single isomer, unassigned) [Example 89]
A (A=Dmax>75%)	< 0.1 µM	> 1 µM	C (C=Dmax<50%)			CC1(C)CN(CC2CCN(c3ccc4c(c3)C(=O)N([C@H]3CCC(=O)NC3=O)C4)CC2)CCN1C(=O)N1CCN2c3cc(-c4cccc(F)c4O)nnc3NCC2(CF)C1 (single isomer, unassigned) [Example 90]
	< 0.1 µM	0.1 to 1 µM		> 75%	< 50%	C[C@@H]1CN(CC2CCN(c3ccc4c(c3)C(=O)N(C3CCC(=O)NC3=O)C4)CC2)[C@@H](C)CN1C(=O)N1CCN2c3cc(-c4cccc(F)c4O)nnc3NCC2(C)C1 (single isomer, unassigned) [Example 91]
	< 0.1 µM	> 1 µM		> 75%	< 50%	C[C@@H]1CN(CC2CCN(c3ccc4c(c3)C(=O)N(C3CCC(=O)NC3=O)C4)CC2)C[C@H](C)N1C(=O)N1CCN2c3cc(-c4cccc(Cl)c4O)nnc3NCC2(C)C1 (single isomer, unassigned) [Example 92]
	< 0.1 µM	> 1 µM		> 75%	< 50%	COCC12CNc3nnc(-c4cccc(F)c4O)cc3N1CCN(C(=O)N1CCN(CC3CCN(c4ccc5c(c4)C(=O)N([C@H]4CCC(=O)NC4=O)C5)CC3)CC1(C)C)C2 (single isomer, unassigned) [Example 93]
	< 0.1 µM	< 0.1 µM		> 75%	> 75%	C[C@@H]1CN(CC2CCN(c3ccc4c(c3)C(=O)N([C@H]3CCC(=O)NC3=O)C4)CC2)C[C@H](C)N1C(=O)N1CCN2c3cc(-c4cccc(F)c4O)nnc3NCC2(C(F)(F)F)C1 (single isomer, unassigned) [Example 95]
	< 0.1 µM	< 0.1 µM	A (A=Dmax>75%)	> 75%		C[C@@H]1CN(CC2CCN(c3ccc4c(c3)C(=O)N([C@H]3CCC(=O)NC3=O)C4)CC2)C[C@@H](C)N1C(=O)N1CCN2c3cc(-c4cccc(F)c4O)nnc3NCC2(C(F)(F)F)C1 (single isomer, unassigned) [Example 96]
A (A=Dmax>75%)	< 0.1 µM	0.1 to 1 µM	C (C=Dmax<50%)			C[C@@H]1CN(CC2CCN(c3ccc4c(c3)C(=O)N([C@H]3CCC(=O)NC3=O)C4)CC2)C[C@@H](C)N1C(=O)N1CCN2c3cc(-c4cccc(F)c4O)nnc3NCC2(C(F)(F)F)C1 (single isomer, unassigned) [Example 97]
	< 0.1 µM	< 0.1 µM	A (A=Dmax>75%)	> 75%		C[C@@H]1C[C@H](CN2CCN(c3ccc4c(c3)C(=O)N([C@H]3CCC(=O)NC3=O)C4)CC2)C[C@H](C)N1C(=O)N1CCN2c3cc(-c4cccc(F)c4O)nnc3NCC2(C(F)(F)F)C1 (single isomer, unassigned) [Example 98]
A (A=Dmax>75%)	< 0.1 µM	< 0.1 µM	B (B=50%<Dmax≤75%)			C[C@@H]1C[C@H](CN2CCN(c3ccc4c(c3)C(=O)N([C@H]3CCC(=O)NC3=O)C4)CC2)C[C@H](C)N1C(=O)N1CCN2c3cc(-c4cccc(F)c4O)nnc3NCC2(C(F)(F)F)C1 (single isomer, unassigned) [Example 99]
A (A=Dmax>75%)	< 0.1 µM	< 0.1 µM			50 to 75%	CC1(C)CN(CC2CCN(c3ccc4c(c3)C(=O)N([C@H]3CCC(=O)NC3=O)C4)CC2)CCN1C(=O)N1CCN2c3cc(-c4cccc(F)c4O)nnc3NCC2(C(F)(F)F)C1 (single isomer, unassigned) [Example 100]
B (B=50%<Dmax≤75%)	< 0.1 µM	> 1 µM	C (C=Dmax<50%)			CC1(C)CN(CC2CCN(c3ccc4c(c3)C(=O)N([C@H]3CCC(=O)NC3=O)C4)CC2)CCN1C(=O)N1CCN2c3cc(-c4cccc(F)c4O)nnc3NCC2(C(F)(F)F)C1 (single isomer, unassigned) [Example 101]
